{"source": "patent US20080200492A1", "about": "“METHODS FOR THE TREATMENT OF ALCOHOL ABUSE, ADDICTION AND DEPENDENCY” (priority 2006, published 2008)", "system": "alcohol preferring rats", "assay": "Alcohol Preferring Rats In Vivo Model, acute oral dosing, two-bottle choice", "set-up": "species or system rat", "conditions": "for Alcohol Intake / Alcohol Preference: mean ± S.E.M., N = 14", "procedure": "Adult male selectively-bred alcohol preferring rats (N=14) were used. This particular strain of alcohol drinking rat has been characterized and have been widely used to study the effects of different compounds on voluntary alcohol intake (Farren et al., 2000; Rezvani et al, 1990, 1991, 1992a, 1992b, 1999, 2000, 2003; Murphy et al, 1988; Overstreet et al., 2003, 1999; Li and McBride, 1990). Rats were housed individually in approved cages under a constant room temperature of 22+1° C. and 12:12 light-dark cycle (8:00-20:00, dark). Animal were fed Agway Prolab Rat/Mouse/Hamster 3000 formula and water ad libitum.\nAlcohol intake was determined using the standard two-bottle choice method utilized in our and other laboratories for many years (Murphy et al. 1988; Rezvani et al. 1990, 1991, 1993, 1995, 1997, Rezvani and Grady, 1994, Rezvani et al., 1993). Animals were first given free access to water in a graduated Richter tube for 2 days. Next, they were given access to only a solution of 10% (v/v) ethanol for 3 consecutive days. During this period animals became accustomed to drinking from Richter tubes and to the taste and pharmacological effects of alcohol. Thereafter, they were given free access to both water and a solution of 10% alcohol for at least 4 consecutive weeks and throughout of the period of study. Rats had free access to food. Water and alcohol intake were recorded at 6 and 24 hour after the treatment, whereas food intake was measured at 24 hour. Animals' body weights were measured the day of the treatment and the day after.\nAfter establishment of stable baseline for alcohol, food, and water intake, rats were administered (gavage) at 9:30 a.m. either with the vehicle or the compound of formula (I) at one of four doses (1,3,10 and 30 mg/kg) using a cross-over design with random assignment. To be able to compare the efficacy of the compound of formula (I) on alcohol intake naltrexone was included as a positive control. The same rats were given an oral dose of 20 mg/kg naltrexone. All animals will receive all treatments in a random order. The interval between treatments was at least 1 week. Alcohol and water intake were recorded 6 and 24 h after the drug administration and food intake was recorded at 24 hr. The volume of the drug administration was 6 ml/kg.\nThe results at 6 and 24 hours post-dosing are presented in Tables 3 and 4 below, as means ±SEM. Alcohol intake (g/kg) was calculated by multiplying the volume of alcohol consumed in ml by 10% and 0.7893 (ethanol density)/body weight in kg. Alcohol preference, expressed as a percentage, was calculated as follows (volume of alcohol consumed in ml/total fluid intake in ml)×100 (Rezvani and Grady, 1994; Rezvani et al., 1997). Statistical differences between drug-treated and control groups were determined by using ANOVA with repeated measures. Each treatment was compared with the corresponding vehicle value.", "key": {"[1]": {"conditions": "20 mg/kg p.o., 6 hrs post-dosing"}, "[2]": {"conditions": "20 mg/kg p.o., 24 hrs post-dosing"}, "[3]": {"conditions": "1 mg/kg p.o., 6 hrs post-dosing"}, "[4]": {"conditions": "1 mg/kg p.o., 24 hrs post-dosing"}, "[5]": {"conditions": "3 mg/kg p.o., 6 hrs post-dosing"}, "[6]": {"conditions": "3 mg/kg p.o., 24 hrs post-dosing"}, "[7]": {"conditions": "10 mg/kg p.o., 6 hrs post-dosing"}, "[8]": {"conditions": "10 mg/kg p.o., 24 hrs post-dosing"}, "[9]": {"conditions": "30 mg/kg p.o, 6 hrs post-dosing"}, "[10]": {"conditions": "30 mg/kg p.o, 24 hrs post-dosing"}}, "data": [{"smiles": "O=C1CC[C@@]2(O)[C@H]3Cc4ccc(O)c5c4[C@@]2(CCN3CC2CC2)[C@H]1O5", "note": "[Naltrexone, naltrexone, reference compound]", "values": [{"measurement": "Alcohol Intake", "setting": "[1]", "value": "1.19 ± 0.25", "unit": "g/kg"}, {"measurement": "Alcohol Preference", "setting": "[1]", "value": "46.8 ± 7.91", "unit": "%"}, {"measurement": "Alcohol Intake", "setting": "[2]", "value": "3.64 ± 0.545", "unit": "g/kg"}, {"measurement": "Alcohol Preference", "setting": "[2]", "value": "58.8 ± 6.77", "unit": "%"}, {"measurement": "Alcohol intake compared with vehicle", "setting": "naltrexone 20 mg/kg oral, 24 hr post-dosing", "value": "remained statistically significantly (p<0.0028) in reducing alcohol intake"}, {"measurement": "Alcohol preference compared with vehicle", "setting": "naltrexone 20 mg/kg oral, both 6 hours and 24 hours post-dosing", "value": "reduced alcohol preference"}]}, {"smiles": "Cc1cccc2cccc(CN3CCC4(CC3)C(=O)N(C[C@H](O)CN)CN4c3ccc(F)cc3)c12", "note": "[Cmpd (I-A), 3-(3-amino-2-(R)-hydroxy-propyl)-1-(4-fluoro-phenyl)-8-(8-methyl-naphthalen-1-ylmethyl)-1,3,8-triazaspiro[4.5]decan-4-one]", "values": [{"measurement": "Alcohol Intake", "setting": "[3]", "value": "1.85 ± 0.234", "unit": "g/kg"}, {"measurement": "Alcohol Preference", "setting": "[3]", "value": "75.1 ± 5.60", "unit": "%"}, {"measurement": "Alcohol Intake", "setting": "[4]", "value": "4.95 ± 0.389", "unit": "g/kg"}, {"measurement": "Alcohol Preference", "setting": "[4]", "value": "80.4 ± 4.68", "unit": "%"}, {"measurement": "Alcohol Intake", "setting": "[5]", "value": "1.53 ± 0.184", "unit": "g/kg"}, {"measurement": "Alcohol Preference", "setting": "[5]", "value": "61.6 ± 6.19", "unit": "%"}, {"measurement": "Alcohol Intake", "setting": "[6]", "value": "4.43 ± 0.339", "unit": "g/kg"}, {"measurement": "Alcohol Preference", "setting": "[6]", "value": "68.9 ± 4.87", "unit": "%"}, {"measurement": "Alcohol Intake", "setting": "[7]", "value": "1.59 ± 0.238", "unit": "g/kg"}, {"measurement": "Alcohol Preference", "setting": "[7]", "value": "62.4 ± 6.33", "unit": "%"}, {"measurement": "Alcohol Intake", "setting": "[8]", "value": "4.73 ± 0.351", "unit": "g/kg"}, {"measurement": "Alcohol Preference", "setting": "[8]", "value": "71.7 ± 3.56", "unit": "%"}, {"measurement": "Alcohol Intake", "setting": "[9]", "value": "0.905 ± 0.198", "unit": "g/kg"}, {"measurement": "Alcohol Preference", "setting": "[9]", "value": "46.7 ± 8.20", "unit": "%"}, {"measurement": "Alcohol Intake", "setting": "[10]", "value": "3.16 ± 0.582", "unit": "g/kg"}, {"measurement": "Alcohol Preference", "setting": "[10]", "value": "50.1 ± 7.77", "unit": "%"}, {"measurement": "Alcohol preference compared with vehicle", "setting": "30 mg/kg, both 6 hours and 24 hours post-dosing", "value": "reduced alcohol preference"}, {"measurement": "Alcohol intake compared with vehicle", "setting": "acute oral administration of 3, 10 and 30 mg/kg, at 6 hr", "value": "significantly reduced alcohol intake"}, {"measurement": "Alcohol intake compared with vehicle", "setting": "at 24 hr, only \"the mg/kg dose\" (dose figure missing)", "value": "statistically significantly (p<0.0002) in reducing alcohol intake"}, {"measurement": "Alcohol preference compared with vehicle", "setting": "other doses (1, 3, 10 mg/kg), 6 hours and 24 hours post-dosing", "value": "did not significantly affect alcohol preference"}]}]}
